Assay results from ChEMBL document CHEMBL5113415, “Synthesis of 10,10'-bis(trifluoromethyl) marinopyrrole A derivatives and evaluation of their antiviral activities in vitro” (Eur J Med Chem, 2022).

Key:
Dengue virus = assay: Antiviral activity against DENV-NGC-1 infected in […] incubated for 7 days by CellTiter 96 luminescent cell viability assay; type: functional, organism-based; conditions: NGC-1, BHK, 168 h
Zika virus = assay: Antiviral activity against ZIKV-SMGC-1 infected in […] incubated for 7 days by CellTiter 96 luminescent cell viability assay; type: functional, organism-based; conditions: SMGC-1, BHK, 168 h
[1] = Cytotoxicity against […] infected with ZIKV-SMGC-1 incubated for 7 days by CellTiter 96 luminescent cell viability assay; type: toxicity, cell-based; conditions: time 7 day
[2] = Cytotoxicity against […] infected with DENV-NGC-1 incubated for 7 days by CellTiter 96 luminescent cell viability assay; type: toxicity, cell-based; conditions: time 7 day
[3] = test system: Japanese encephalitis virus; assay: Antiviral activity against JEV-SA14 infected in […] incubated for 7 days by CellTiter 96 luminescent cell viability assay; type: functional, organism-based; conditions: 168 h
Yellow fever virus = assay: Antiviral activity against YFV-17D infected in […] incubated for 7 days by CellTiter 96 luminescent cell viability assay; type: functional, organism-based; conditions: 168 h
[4] = Cytotoxicity against […] infected with JEV-SA14 incubated for 7 days by CellTiter 96 luminescent cell viability assay; type: toxicity, cell-based; conditions: time 7 day
[5] = Cytotoxicity against […] infected with YFV-17D incubated for 7 days by CellTiter 96 luminescent cell viability assay; type: toxicity, cell-based; conditions: time 7 day
Enterovirus A71 = assay: Antiviral activity against EV71 infected in human RD cells incubated for 3 days by CellTiter 96 luminescent cell viability assay; type: functional, organism-based; conditions: Enterovirus A, 71, RD, 72 h
Coxsackievirus = assay: Antiviral activity against CA6 infected in human RD cells incubated for 3 days by CellTiter 96 luminescent cell viability assay; type: functional, organism-based; conditions: A6, RD, 72 h
Coxsackievirus A16 = assay: Antiviral activity against CA16 infected in human RD cells incubated for 3 days by CellTiter 96 luminescent cell viability assay; type: functional, organism-based; conditions: Enterovirus A, 72 h
[6] = Cytotoxicity against human RD cells infected with EV71 incubated for 3 days by CellTiter 96 luminescent cell viability assay; type: toxicity, cell-based; conditions: time 3 day
[7] = Cytotoxicity against human RD cells infected with CA6 incubated for 3 days by CellTiter 96 luminescent cell viability assay; type: toxicity, cell-based; conditions: time 3 day
[8] = Cytotoxicity against human RD cells infected with CA16 incubated for 3 days by CellTiter 96 luminescent cell viability assay; type: toxicity, cell-based; conditions: time 3 day
[9] = Selectivity index, ratio of CC50 for […] to IC50 for ZIKV-SMGC-1 infected in […]; type: toxicity, cell-based; conditions: read-out: Ratio CC50/IC50
[10] = Selectivity index, ratio of CC50 for […] to IC50 for DENV-NGC infected in […]; type: toxicity, cell-based; conditions: read-out: Ratio CC50/IC50
[11] = Selectivity index, ratio of CC50 for […] to IC50 for JEV-SA14 infected in […]; type: toxicity, cell-based; conditions: read-out: Ratio CC50/IC50
[12] = Selectivity index, ratio of CC50 for […] to IC50 for YFV-17D infected in […]; type: toxicity, cell-based; conditions: read-out: Ratio CC50/IC50
[13] = Selectivity index, ratio of CC50 for human RD cells to IC50 for EV71 infected in human RD cells; type: toxicity, cell-based; conditions: read-out: Ratio CC50/IC50
[14] = Selectivity index, ratio of CC50 for human RD cells to IC50 for CA6 infected in human RD cells; type: toxicity, cell-based; conditions: read-out: Ratio CC50/IC50
[15] = Selectivity index, ratio of CC50 for human RD cells to IC50 for CA16 infected in human RD cells; type: toxicity, cell-based; conditions: read-out: Ratio CC50/IC50

C#C[C@@]1(O)[C@H](O)[C@@H](CO)O[C@H]1n1ccc2c(N)ncnc21
IC50 (Dengue virus): 5050 nM | IC50 (Zika virus): 1620 nM | CC50 at 168 h [1]: > 20000 nM | CC50 at 168 h [2]: > 20000 nM | IC50 [3]: 3090 nM | IC50 (Yellow fever virus): 1910 nM | CC50 at 168 h [4]: > 20000 nM | CC50 at 168 h [5]: > 20000 nM | IC50 (Enterovirus A71): 500 nM | IC50 (Coxsackievirus): 920 nM | IC50 (Coxsackievirus A16): 710 nM | CC50 at 72 h [6]: > 20000 nM | CC50 at 72 h [7]: > 20000 nM | CC50 at 72 h [8]: > 20000 nM | selectivity ratio [9]: > 12.3 | selectivity ratio [10]: > 3.96 | selectivity ratio [11]: > 6.47 | selectivity ratio [12]: > 10.5 | selectivity ratio [13]: > 40 | selectivity ratio [14]: > 21.7 | selectivity ratio [15]: > 28.2

O=C(c1ccc(C(F)(F)F)cc1O)c1[nH]c(Cl)c(Cl)c1-n1c(C(=O)c2ccc(C(F)(F)F)cc2O)cc(Cl)c1Sc1ncccn1
IC50 (Enterovirus A71): 90 nM | IC50 (Coxsackievirus): 290 nM | IC50 (Coxsackievirus A16): 30 nM | CC50 at 72 h [6]: 320 nM | CC50 at 72 h [7]: 530 nM | CC50 at 72 h [8]: 530 nM | selectivity ratio [13]: 3.56 | selectivity ratio [14]: 1.84 | selectivity ratio [15]: 17.8

O=C(c1ccc(C(F)(F)F)cc1O)c1[nH]c(Cl)c(Cl)c1-n1c(C(=O)c2ccc(C(F)(F)F)cc2O)cc(Cl)c1SCc1ccccn1
CC50 at 168 h [1]: 320 nM | IC50 [3]: 420 nM | CC50 at 168 h [4]: 260 nM | IC50 (Enterovirus A71): 170 nM | IC50 (Coxsackievirus): 190 nM | IC50 (Coxsackievirus A16): 30 nM | CC50 at 72 h [6]: 240 nM | CC50 at 72 h [7]: 340 nM | CC50 at 72 h [8]: 340 nM | selectivity ratio [11]: 0.61 | selectivity ratio [13]: 1.43 | selectivity ratio [14]: 1.8 | selectivity ratio [15]: 11.5

O=C(c1ccc(C(F)(F)F)cc1O)c1[nH]c(Cl)c(Cl)c1-n1c(C(=O)c2ccc(C(F)(F)F)cc2O)cc(Cl)c1Sc1cccs1
IC50 [3]: 50 nM | IC50 (Yellow fever virus): 50 nM | CC50 at 168 h [4]: 230 nM | CC50 at 168 h [5]: 230 nM | IC50 (Enterovirus A71): 20 nM | IC50 (Coxsackievirus): 30 nM | IC50 (Coxsackievirus A16): 10 nM | CC50 at 72 h [6]: 80 nM | CC50 at 72 h [7]: 110 nM | CC50 at 72 h [8]: 110 nM | selectivity ratio [11]: 4.59 | selectivity ratio [12]: 4.6 | selectivity ratio [13]: 4 | selectivity ratio [14]: 3.67 | selectivity ratio [15]: 12.2

O=C(c1ccc(C(F)(F)F)cc1O)c1[nH]c(Cl)c(Cl)c1-n1c(C(=O)c2ccc(C(F)(F)F)cc2O)cc(Cl)c1Sc1nc2ccccc2o1
IC50 (Dengue virus): 360 nM | IC50 (Zika virus): 360 nM | CC50 at 168 h [2]: 1800 nM | IC50 [3]: 1250 nM | CC50 at 168 h [4]: 1800 nM | IC50 (Enterovirus A71): 300 nM | IC50 (Coxsackievirus): 490 nM | IC50 (Coxsackievirus A16): 130 nM | CC50 at 72 h [6]: 920 nM | CC50 at 72 h [7]: 1560 nM | CC50 at 72 h [8]: 1560 nM | selectivity ratio [9]: 5 | selectivity ratio [10]: 5 | selectivity ratio [11]: 1.44 | selectivity ratio [13]: 3.07 | selectivity ratio [14]: 3.18 | selectivity ratio [15]: 12

Cn1nnnc1Sc1c(Cl)cc(C(=O)c2ccc(C(F)(F)F)cc2O)n1-c1c(C(=O)c2ccc(C(F)(F)F)cc2O)[nH]c(Cl)c1Cl
IC50 (Dengue virus): 1740 nM | IC50 (Zika virus): 1240 nM | CC50 at 168 h [1]: 3120 nM | CC50 at 168 h [2]: 3120 nM | IC50 [3]: 2790 nM | IC50 (Yellow fever virus): 2470 nM | CC50 at 168 h [4]: 2480 nM | CC50 at 168 h [5]: 2490 nM | IC50 (Coxsackievirus): 2750 nM | IC50 (Coxsackievirus A16): 960 nM | CC50 at 72 h [7]: 4290 nM | CC50 at 72 h [8]: 4300 nM | selectivity ratio [9]: 2.52 | selectivity ratio [10]: 1.79 | selectivity ratio [11]: 0.89 | selectivity ratio [12]: 1.01 | selectivity ratio [14]: 1.56 | selectivity ratio [15]: 4.48
